The subject of data set [1] is Escherichia coli EC14. As to the kind of experiment: Minimum inhibitory concentration, standard agar dilution method. Format: cell-based. The source says:
(§1) The method of this invention is useful in treating infections caused by a variety of microorganisms pathogenic to man and animals. […] The concentrations were obtained by the standard agar dilution method.
Background: In agar dilution, organisms are placed on agar that contains the substance at set levels.

Data set [2] relates to Escherichia coli N10. The description is as above. Format: cell-based.
Description: as §1

The test system of data set [3] is Escherichia coli TEM. The description is as above. Format: cell-based.
Description: as §1

Data set [4] concerns Haemophilus influenzae 76. The data set is described as above. Format: cell-based.
Description: as §1

Data set [5] relates to Haemophilus influenzae C.L. The description is as above. Format: cell-based.
Description: as §1

For data set [6], the system named is Klebsiella pneumoniae KAE. The description is as above. Format: cell-based. To be noted: for MIC: read-out: Minimum Inhibitory Concentration.
Description: as §1

Data set [7] concerns Klebsiella pneumoniae X26. The data set is described as above. Format: cell-based.
Description: as §1

Data set [8] deals with Klebsiella pneumoniae X68. The description is as above. Format: cell-based.
Description: as §1

Data set [9] has as its system Staphylococcus aureus S13E. The data set is described as above. Format: cell-based. The note with it: for Minimum Inhibitory Concentration: Staphylococcus aureus S13E, agar dilution; for MIC: Staphylococcus aureus, S13E, read-out: Minimum Inhibitory Concentration.
Description: as §1

In data set [10] the test system is Staphylococcus aureus V41. The data set is described as above. Format: cell-based.
Description: as §1

Data set [11] relates to Staphylococcus aureus X1.1. The data set is described as above. Format: cell-based.
Description: as §1

In data set [12] the test system is Staphylococcus aureus X400. The data set is described as above. Format: cell-based.
Description: as §1

The subject of data set [13] is Staphylococcus epidermidis 222. The data set is described as above. Format: cell-based.
Description: as §1

For data set [14], the system named is Staphylococcus epidermidis Epil. The description is as above. Format: cell-based.
Description: as §1

The subject of data set [15] is Streptococcus pneumoniae PARK I. The data set is described as above. Format: cell-based.
Description: as §1

Data set [16] deals with Streptococcus pyogenes C203. Described as above. Format: cell-based.
Description: as §1

The subject of data set [17] is Streptococcus sp. group D 2041. Described as above. Format: cell-based. The note with it: for MIC: read-out: Minimum Inhibitory Concentration.
Description: as §1

Data set [18] deals with Streptococcus sp. group D X66. Described as above. Format: cell-based. The note with it: for MIC: read-out: Minimum Inhibitory Concentration.
Description: as §1

Data set [19] in a line: Peroral bioavailability in mice (oral vs subcutaneous dosage). Format: in vivo, mice (Cox Male Standard Mice, Lai:COX (Standard) BR). To be noted: 20 mg/kg; for Oral Bioavailability % BA (AUC): area under plasma curves after oral vs subcutaneous dosage; for Oral Bioavailability % BA (URINE): urinary excretion after oral vs subcutaneous dosage. The source says:
Cox Male Standard Mice, Lai:COX (Standard) BR were housed overnight in a wire-bottom cage with free access to water and liquid diet. The result was a gastro-intestinal tract free of solids, yet without the nutritional shock and coprophagy that often accompanies overnight starvation of rodents. After dosing, the mice were housed individually in ventilated wide-mouth jars containing a layer of buffer beneath an elevated wire screen floor. At intervals after dosing, mice were removed from the jars and heparinized blood, stomach, and small intestine were removed from the animals. The urinary bladder was removed and combined with the urine collected in the buffer in the bottom of the jars. Urine, washings from the stomach and small intestine, and plasma prepared from blood samples were assayed for antibiotic activity. The test procedure used is a modification of the test procedure described by W. E. Wright, et al., J. Antibiotics, 32:1155 (1979).
Dose solutions were prepared in saline at 2 mg/ml for subcutaneous or oral administration. In all cases the compounds were administered to the mice at 20 mg/kg on an equal weight basis.
The biological activity of the samples was determined by a conventional agar well procedure using Bacillus subtilis ATCC 6633 as the test organism.
Peroral bioavailability (BA) of the test compounds in mice can be determined either by comparison of the area under the plasma curves (AUC) after oral or subcutaneous dosage, or by comparison of the urinary excretion of the dose after oral and subcutaneous dosage. Calculations of BA by either method are made with the following formulae: [formula]

Data set [20] is described as follows: Oral bioavailability in dogs. To be noted: female mongrel dogs. Format: in vivo.
[21] abbreviates: Klebsiella pneumoniae KAE, agar dilution.
The mark [22] stands for this setting: Staphylococcus aureus V41, agar dilution.
The mark [23] stands for this setting: Staphylococcus aureus X400, agar dilution.
Where [24] appears, read: Streptococcus sp. group D 2041, agar dilution.
Where [25] appears, read: Streptococcus sp. group D X66, agar dilution.
[26] abbreviates: Staphylococcus aureus V41, agar dilution, read-out: Minimum Inhibitory Concentration.
Where [27] appears, read: Staphylococcus aureus X400, agar dilution, read-out: Minimum Inhibitory Concentration.

Molecules are shown by their SMILES. In brackets after ≈: the same amount, converted by molar mass. Like-named read-outs stand apart in the source and are kept apart here.

For the molecule `Nc1nc(CC(=O)N[C@@H]2C(=O)N3C(C(=O)O)=C(Cl)CS[C@H]23)ns1` [Compound 1], the “Minimum Inhibitory Concentration” value in [1] was 8 µg/mL; in data set [2], 32 µg/mL; in data set [3], 16 µg/mL; in data set [4] it was 4 µg/mL; in [5], 4 µg/mL; in data set [6] (setting [21]), over 128 µg/mL. Also, the “Minimum Inhibitory Concentration” value was 4 µg/mL in data set [7]; 8 µg/mL in data set [8]; 64 µg/mL in [9]; 128 µg/mL in data set [10] (setting [22]); 4 µg/mL in data set [11]; over 128 µg/mL in data set [12] (setting [23]). Further, the “Minimum Inhibitory Concentration” value in data set [13] was 4 µg/mL; in data set [14] it was 16 µg/mL; in [15], 2 µg/mL; in [16], 1 µg/mL; in [17] (setting [24]), 128 µg/mL; in data set [18] (setting [25]), over 128 µg/mL.
Take `O=C(Cc1csc(Cl)n1)N[C@@H]1C(=O)N2C(C(=O)O)=C(Cl)CS[C@H]12` [Compound 3, 7β-[2-(2-Chlorothiazol-4-yl)acetamido]-3-chloro-3-cephem-4-carboxylic acid]: in data set [19], the “Oral Bioavailability % BA (AUC)” value is given as 66%. In data set [19], the “Oral Bioavailability % BA (URINE)” value is listed as 56%. In addition, the MIC in [1] was found to be 16 µg/mL (≈ 40.6 µM); in data set [2], 32 µg/mL (≈ 81.2 µM); in [3] it was 16 µg/mL (≈ 40.6 µM); in data set [4] it was 2 µg/mL (≈ 5.07 µM); in data set [5], 2 µg/mL (≈ 5.07 µM); in [6] (setting [21]) it was 128 µg/mL (≈ 325 µM). Also, the MIC in data set [7] is 4 µg/mL (≈ 10.1 µM); in [8] it was 8 µg/mL (≈ 20.3 µM); in [9] it was 64 µg/mL (≈ 162 µM); in data set [10] (setting [26]), 64 µg/mL (≈ 162 µM); in data set [11] it was 1 µg/mL (≈ 2.54 µM); in data set [12] (setting [27]), over 128 µg/mL. For the same molecule, the MIC in data set [13] amounted to 2 µg/mL (≈ 5.07 µM); in [14], 8 µg/mL (≈ 20.3 µM); in data set [15], 0.5 µg/mL (≈ 1.27 µM); in [16], 0.25 µg/mL (≈ 0.634 µM); in data set [17] (setting [24]) it was 64 µg/mL (≈ 162 µM); in data set [18] (setting [25]), 128 µg/mL (≈ 325 µM).
Turning to `Cc1nc(CC(=O)N[C@@H]2C(=O)N3C(C(=O)O)=C(Cl)CS[C@H]23)cs1` [Compound 4, 7β-[2-(2-Methylthiazol-4-yl)acetamido]-3-chloro-3-cephem-4-carboxylic acid], in data set [19], the “Oral Bioavailability % BA (AUC)” value is on record as 57%. Also, the “Oral Bioavailability % BA (URINE)” value in [19] stood at 66%. Moreover, the MIC in data set [1] was 16 µg/mL (≈ 42.8 µM); in data set [2], 32 µg/mL (≈ 85.6 µM); in data set [3], 16 µg/mL (≈ 42.8 µM); in data set [4], 1 µg/mL (≈ 2.67 µM); in data set [5], 2 µg/mL (≈ 5.35 µM); in data set [6] (Klebsiella pneumoniae), over 128 µg/mL. The MIC in data set [7] is 2 µg/mL (≈ 5.35 µM); in [8] it was 8 µg/mL (≈ 21.4 µM); in [9] it was 128 µg/mL (≈ 342 µM); in data set [10] (Staphylococcus aureus, V41, read-out: Minimum Inhibitory Concentration), 128 µg/mL (≈ 342 µM); in data set [11], 1 µg/mL (≈ 2.67 µM); in data set [12] (Staphylococcus aureus, X400, read-out: Minimum Inhibitory Concentration), over 128 µg/mL. In addition, the MIC is 2 µg/mL (≈ 5.35 µM) in data set [13]; 8 µg/mL (≈ 21.4 µM) in data set [14]; 1 µg/mL (≈ 2.67 µM) in data set [15]; 0.25 µg/mL (≈ 0.669 µM) in data set [16]; 128 µg/mL (≈ 342 µM) in data set [17] (Streptococcus); over 128 µg/mL in data set [18] (Streptococcus).
With `O=C(Cc1csc(-c2ccccc2)n1)N[C@@H]1C(=O)N2C(C(=O)O)=C(Cl)CS[C@H]12` [Compound 5, 7β-[2-(2-Phenylthiazol-4-yl)acetamido]-3-chloro-3-cephem-4-carboxylic acid], the MIC is over 128 µg/mL in [1]; over 128 µg/mL in data set [2]; over 128 µg/mL in data set [3]; 0.5 µg/mL (≈ 1.15 µM) in [4]; 4 µg/mL (≈ 9.18 µM) in data set [5]; over 128 µg/mL in data set [6] (setting [21]). Also, the MIC is 8 µg/mL (≈ 18.4 µM) in data set [7]; over 128 µg/mL in [8]; 16 µg/mL (≈ 36.7 µM) in data set [9]; 32 µg/mL (≈ 73.4 µM) in [10] (setting [26]); 0.25 µg/mL (≈ 0.574 µM) in data set [11]; 64 µg/mL (≈ 147 µM) in data set [12] (setting [27]). Also, the MIC in data set [13] was found to be 0.5 µg/mL (≈ 1.15 µM); in data set [14] it was 4 µg/mL (≈ 9.18 µM); in data set [15] it was 0.125 µg/mL (≈ 0.287 µM); in data set [16], 0.06 µg/mL (≈ 0.138 µM); in data set [17] (setting [24]), 16 µg/mL (≈ 36.7 µM); in data set [18] (setting [25]), 64 µg/mL (≈ 147 µM).
With `O=C(Cn1cnnn1)N[C@@H]1C(=O)N2C(C(=O)O)=C(Cl)CS[C@H]12` [Compound 6], the “Minimum Inhibitory Concentration” value in data set [1] is 16 µg/mL; in [2], 32 µg/mL; in data set [3], 32 µg/mL; in data set [4] it was 8 µg/mL; in [5] it was 16 µg/mL; in [6] (setting [21]), over 128 µg/mL. Besides, the “Minimum Inhibitory Concentration” value is 32 µg/mL in [7]; 32 µg/mL in data set [8]; 32 µg/mL in data set [9]; 32 µg/mL in data set [10] (setting [22]); 2 µg/mL in data set [11]; over 128 µg/mL in data set [12] (setting [23]). Also, the “Minimum Inhibitory Concentration” value in [13] was found to be 4 µg/mL; in data set [14], 16 µg/mL; in data set [15], 0.5 µg/mL; in data set [16] it was 0.5 µg/mL; in data set [17] (setting [24]), 64 µg/mL; in data set [18] (setting [25]), 64 µg/mL.
Regarding `N#Cc1ncn(CC(=O)N[C@@H]2C(=O)N3C(C(=O)O)=C(Cl)CS[C@H]23)n1` [Compound 7], the “Minimum Inhibitory Concentration” value was 32 µg/mL in data set [1]; 64 µg/mL in data set [2]; 64 µg/mL in data set [3]; 2 µg/mL in data set [4]; 2 µg/mL in [5]; over 128 µg/mL in data set [6] (setting [21]). Further, the “Minimum Inhibitory Concentration” value in data set [7] was 32 µg/mL; in data set [8], 64 µg/mL; in data set [9], 128 µg/mL; in [10] (setting [22]), 128 µg/mL; in data set [11], 2 µg/mL; in [12] (setting [23]), over 128 µg/mL. Moreover, the “Minimum Inhibitory Concentration” value in [13] turned out to be 4 µg/mL; in data set [14], 8 µg/mL; in [15], 0.5 µg/mL; in [16] it was 0.25 µg/mL; in [17] (setting [24]), 64 µg/mL; in [18] (setting [25]), 128 µg/mL.
As to `CC1(C)S[C@@H]2[C@H](NC(=O)COc3ccccc3)C(=O)N2[C@H]1C(=O)O` [Penicillin V], in data set [20] (dog, urine recovery with time following intravenous and oral administration, read-out: bioavailability (percent of dose recovered in the urine)), the bioavailability (commonly dose-corrected exposure relative to a reference, in per cent) came out at 21%. Moreover, in [20] (serum antibacterial levels with time following intravenous and oral administration), the “oral bioavailability (area under the curves)” value was 11%.
